# Reference: patent publication US7868206B2, “Trihalomethionine derivative and pharmaceutical product containing the same” (National University Corporation, Gunma University, priority 2005, dated 2011)
# Where “and” joins values, the source holds several entries; their conditions need not be identical. Identical values can stand only once. Entries after “also recorded” stand apart in the source; their conditions may differ. Counter-ions that a name gives are not always drawn. Like-named read-outs stand apart in the source and are kept apart here.
# Assays:
# [1] = system: Entamoeba histolytica HM1: IMSS c16 strain; experiment: Inhibition of proliferation of Entamoeba histolytica, anaerobic culture in 96-well plate, 72 hours, WST-1 (Example 2); assay type: cell-based; details: for IC50: Entamoeba histolytica, 0.25 to 20 μM, anaerobic culture, read-out: IC50 (concentration required to inhibit proliferation by 50% compared to untreated controls)
# Procedure: (§1) The Entamoeba histolytica HM1: IMSS c16 strain was cultured for 18 hours in a medium containing each compound at a concentration of 80 μM. […] The cell number was measured by determining the number of living cells of Entamoeba histolytica using WST-1 (Roche Diagnostics K.K.).
# The killing effects of each of the compounds: trifluoromethionine (TFM), trifluoromethionine amide (WY200), SK254, SK258, WY241, WY244, WY252, K010, SK276, SK316, SK336, and SK337 on Entamoeba histolytica HM1: IMSS c16 strain were examined. The Entamoeba histolytica HM1: IMSS c16 strain was anaerobically cultured in a medium containing each compound at a concentration of 0.25 to 20 μM in a 96-well plate: The number of cells after 72 hours was determined in the same way as Example 1. […] It was found from the results that many compounds including SK337 killed the Entamoeba histolytica protozoan at concentrations more than 10-fold lower than the concentration of trifluoromethionine.
# [2] = system: Entamoeba histolytica HM1: IMSS c16 strain; details: for Total liver weight / Liver non-abscess portions / Liver abscess portions: individual hamsters A, B, C; for Liver abscess portions: dash = no abscess (total = non-abscess)
# Procedure: Next, the compound of the present invention was evaluated in an animal infection experiment using a hamster liver abscess model. First, an Entamoeba histolytica HM1: IMSS c16 strain was injected to 3-week-old female hamsters to induce liver abscesses. […] In Table 2, A, B, and C in the respective groups show individual hamsters used. Many other compounds (trifluoromethionine, SK254, SK258, WY241, WY244, and WY252) were evaluated in animal infection experiments in the same way as Example 3.
# [3] = system: Entamoeba histolytica HM1: IMSS c16 strain; experiment: Killing effect on Entamoeba histolytica, living cell number by WST-1 after 18 hours (Example 1, FIG. 1); assay type: cell-based; details: 80 μM, 18 hours culture
# Procedure: as §1, with “The killing effect of each of the compounds: trifluoromethionine (TFM), trifluoromethionine amide (WY200), metronidazole (known anti-amoeba drug) on an Entamoeba histolytica HM1: IMSS c16 strain was examined. The Entamoeba” for “The Entamoeba”
# [4] = intraperitoneal 3 μmol (1.1 to 1.3 mg) per hamster (body weight 28 to 37 g), hydrochloride
# [5] = intraperitoneal 3 μmol per hamster, hydrochloride
# [6] = intraperitoneal 3 μmol (1.1 to 1.3 mg) per hamster (body weight 28 to 37 g)
# [7] = intraperitoneal 3 μmol per hamster
IC50 [1] [µM],SMILES,"Total liver weight [2, 6]","Liver non-abscess portions [2, 7]",further results
13.7,"NC(CSC(F)(F)F)C(=O)Nc1ccccc1 (stereo in doubt) [KO10, (S)-2-amino-N-phenyl-3-(trifluoromethylthio)propanamide hydrochloride]",–,–,–
2.5,"Cl.N[C@@H](CCSC(F)(F)F)C(=O)NCc1ccccc1 [SK254, (S)-2-amino-N-benzyl-4-(trifluoromethylthio)butanamide hydrochloride]",–,–,"Total liver weight [2, 4]: A. 2,318 mg; also recorded: B. 2,193 mg; also recorded: C. 2,386 mg; Liver non-abscess portions [2, 5]: 2,318 mg and 2,193 mg and 2,386 mg"
2.5,"Cl.N[C@@H](CCSC(F)(F)F)C(=O)Nc1ccccc1 [SK258, (S)-2-amino-N-phenyl-4-(trifluoromethylthio)butanamide hydrochloride]",–,–,"Total liver weight [2, 4]: A. 2,071 mg; also recorded: B. 2,768 mg; also recorded: C. 1,510 mg; Liver non-abscess portions [2, 5]: 2,071 mg and 2,768 mg and 1,510 mg"
6.8,"N[C@@H](CCSC(F)(F)F)C(=O)NC1CCc2ccccc21 (stereo partly drawn) [SK276, (2S)-2-amino-N-(2,3-dihydro-1H-inden-1-yl)-4-(trifluoromethylthio) butanamide hydrochloride]",–,–,–
8.9,"N[C@@H](CSC(F)(F)F)C(=O)NCc1ccccc1 [SK316, (R)-2-amino-N-benzyl-3-(trifluoromethylthio)propanamide hydrochloride]",–,–,–
1.7,"COc1cc(NC(=O)[C@@H](N)CCSC(F)(F)F)cc(OC)c1OC [SK336, (S)-2-amino-N-(3,4,5-trimethoxyphenyl)-4-(trifluoromethylthio)butanamide hydrochloride]",–,–,–
1.5,"COc1ccc(NC(=O)[C@@H](N)CCSC(F)(F)F)cc1OC.Cl [SK337, (S)-2-amino-N-(3,4-dimethoxyphenyl)-4-(trifluoromethylthio)butanamide hydrochloride]",–,–,concentration lower than the concentration of trifluoromethionine ([1]; compared with trifluoromethionine): more than 10 fold
17.2,"N[C@@H](CCSC(F)(F)F)C(=O)O [TFM, trifluoromethionine, reference compound]","A. 2,240 mg; also recorded: B. 2,415 mg; also recorded: C. 2,575 mg","2,240 mg and 2,415 mg and 2,575 mg",–
–,"NC(=O)[C@@H](N)CCSC(F)(F)F [WY200, trifluoromethionine amide]","A. 3,059 mg; also recorded: B. 1,624 mg","3,059 mg and 1,624 mg","increase of total weights of the liver (in words) ([2]; intraperitoneal 40 μmol): did not increase the total weights of the liver; liver abscess formation (in words) ([2]; intraperitoneal 40 μmol): caused no liver abscess; Total liver weight ([2]; intraperitoneal 40 μmol, 3-week-old female hamsters): B. 2814 mg; also recorded: A. 2157 mg; Liver non-abscess portions ([2]; intraperitoneal 40 μmol): 2814 mg and 2145 mg; killing effect on Entamoeba histolytica (number of living cells) [3]: more effectively than trifluoromethionine"
11.8,"Cl.N[C@@H](CCSC(F)(F)F)C(=O)Nc1ccc(Br)cc1 [WY241, 1-(4-bromophenylcarbamoyl)-3-trifluoromethylsulfanyl-propyl-ammonium chloride]","A. 2,916 mg; also recorded: B. 2,371 mg; also recorded: C. 2,900 mg","2,916 mg and 2,371 mg and 2,900 mg",–
5.5,"Cl.N[C@@H](CCSC(F)(F)F)C(=O)Nc1ccc(F)cc1F [WY244, 1-(2,4-difluoro-phenylcarbamoyl)-3-trifluoromethylsulfanyl-propyl-ammonium chloride]","A. 2,575 mg; also recorded: B. 2,181 mg; also recorded: C. 2,570 mg","2,561 mg and 2,181 mg and 2,570 mg","Liver abscess portions [2, 7]: 14 mg"
1.6,"COc1cc(NC(=O)[C@@H](N)CCSC(F)(F)F)cc(OC)c1.Cl [WY252, 1-(3,5-dimethoxy-phenylcarbamoyl)-3-trifluoromethylsulfanyl-propylammonium chloride]","A. 2,539 mg; also recorded: B. 3,338 mg; also recorded: C. 2,687 mg","2,1204 mg and 3,338 mg and 2,687 mg","Liver abscess portions [2, 7]: 19 mg"
